From US20260356824A1, “COMPOUNDS FOR TREATING FIBROTIC DISEASES” (Meta-Immue Inc., priority 2023, published 2026) come the findings set out here.

A value given as a limit tells only on which side of the number the result lay.

Series [1] is described as follows: Liver microsomal stability, rat. The series is classed as in vitro ADME. The note with it: rat liver microsomes; 30 min; percent of parent remaining; read-out: Liver Microsomal stability (%), % of remaining after 30 min, Rat. Background: Microsomes from liver hold many membrane-bound enzymes, among them those of drug oxidation.
The target in the next series is T1, BSEP (Homo sapiens, UniProt O95342).
T1 construct: ATP-dependent uptake of radiolabelled probe substrate
Nature of the series: Bile Salt Export Pump (BSEP) Assay, Sf9 insect cell vesicles expressing BSEP. The note with it: 10 μM test compound, probe substrate 1 μM [3H]-taurocholic acid, 15 min incubation. The series is classed as in vitro ADME. As for the experimental part: • 1. A stock solution was prepared with the test article (Sponsor compound) in DMSO. • 2. All final assay solutions of probe substrate, reference inhibitor or test article contain 0.5% (v/v) DMSO (vehicle control). • 3. Test article concentrations in transport study were specified in the Summary Table of Experimental Conditions of this protocol.
• 1. Bovine Serum Albumin (BSA) • 2. Dimethyl sulfoxide (DMSO) • 3. BSEP Assay Uptake Buffer (10 mM HEPES-Tris pH 7.4, 0.1 M KNO3, 12.5 mM Mg(NO3)2, 50 mM sucrose) • 4. BSEP Wash Buffer (10 mM Tris-HCl pH 7.4, 0.1 M KNO3, 50 mM sucrose) • 5. BSEP Blocking Buffer (BSEP Wash Buffer+0.5 mg/mL BSA) • 6. 25 mM Mg-ATP solution • 7. 25 mM AMP solution • 8. Corning Costar 96-well flat-bottom, untreated, white Assay Plate (Corning Cat. No. 3912) • 9. Millipore MultiscreenHTs Filtration Plate, glass fiber FB—1.0/0.65 μm (Cat. No. MSFBN6B10 or glass fiber FC—1.2/0.65 μm (Cat. No. MSFCN6B10) • 10. Millipore MultiscreenHTS Vacuum Manifold (Cat. No. MSVMHTS00) • 11. Probe substrates listed in Table 1 • 12. Reference inhibitors listed in Table 1 • 13. Test articles
• 1. Test system: • a. 96-well flat bottom plate containing a suspension of vesicles and a corresponding 96-well glass fiber filtration plate. • b. Transport experiments were conducted in the Assay Uptake Buffer. • c. Transport experiment was initiated with the addition of Mg-ATP or AMP to appropriate wells. • d. Each condition was run in triplicate wells. • 2. Prepared the 96-well flat-bottom assay plate. • a. Incubated the assay plate with the Blocking Buffer for 60 min at 37 °C with orbital shaking at approximately 90 rpm. (NOTE: This is done to prevent non-specific binding of vesicles to polystyrene assay plate). • b. After 60 min, completely removed the Blocking Buffer from the assay plate. • c. The Assay Uptake Buffer solutions were added to the assay plate wells as follows: • i. For probe substrate transport assays, the Assay Uptake Buffer contained vesicles and the probe substrate at the specified concentration. • ii. For the reference inhibition assay, the Assay Uptake Buffer contained vesicles, the reference inhibitor and the probe substrate at the specified concentration in Table 1. • iii. For the test article assays, Assay Uptake Buffer contained vesicles, the test article and the probe substrate at the specified concentration in Table 1. • 3. Incubate at 37 °C with orbital shaking at approximately 90 rpm for the time period specified in Table 1 of this protocol. • 4. Using the 25 mM Mg-ATP or AMP stocks, Mg-ATP or AMP was added to test wells of flat bottom assay plate to a final concentration of 5 mM. • 5. Incubated at 37 °C with orbital shaking at approximately 90 rpm for the incubation time specified in Table 1 of this protocol. • 6. Prepared the 96-well glass fiber filtration plate: • a. Incubated the filtration plate with the Blocking Buffer for 2 min at room temperature with under no vacuum. • b. Turned on vacuum and allowed Blocking Buffer to filter through plate. • c. With vacuum on, filter plate was washed with ice cold Wash Buffer. • 7. At the end of the specified incubation time indicated in […] of this protocol, vesicle transport was quenched by adding ice cold Wash Buffer to samples in 96-well assay plate. • 8. Mixed assay samples (now diluted in Wash Buffer) with pipette and transfered 175 μL into the 96-well glass fiber filtration plate to separate vesicles from buffer by applying vacuum. • 9. Washed filter plate wells with ice cold Wash Buffer. • 10. Allowed filter plate to dry under vacuum. • 11. Transfered filters to scintillation sample plate and added 700 μL of scintillation fluid to the above samples. • 12. Counted the above samples on a 1450 Microbeta (Perkin-Elmer).
• 1. The amount of substrate was quantified with radiometric detection on a 1450 Microbeta (Perkin-Elmer). • 2. For transport study samples run in triplicate, the mean and standard deviation of the replicates were reported. • 3. […]

The next series deals with A2058 cells. Briefly: Chemotaxis Assay (LPA-induced migration of A2058 cells). The series is classed as cell-based. The note with it: Homo sapiens, 4 to 8 hours, crystal violet 590 nm. Summed up: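 A2058 cells, starved 24 hr and treated with test compound or vehicle, were placed on a fibronectin-coated membrane ([…]) above […] in DMEM. After 4–8 h migration, migrated cells were crystal violet stained and read at 590 nm. Values are relative percentage of control.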

A further series concerns the target T2, hLPAR1 (Homo sapiens, UniProt Q92633).
T2 construct: expressed in transfected cells
Briefly: Ca2+ Flux Assay (B103 cells stably expressing hLPAR1). The series is classed as cell-based. The note with it: LPA-induced calcium release, Fura-2 AM, compound 20 min at RT. Summed up:
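Fura-2 AM (5 μM) loaded 40 min at RT in HBSS/20 mM HEPES/probenecid/0.3% fatty-acid-free BSA after 2 h serum starvation. Compounds preincubated 20 min at RT, then LPA […] added. Intracellular calcium mobilization read as fluorescence intensity.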
Background: Calcium flux is commonly read through the fluorescence of an indicator in the cells.

A short description of series [2]: Liver microsomal stability, human. The note with it: human liver microsomes; 30 min; percent of parent remaining; read-out: Liver Microsomal stability (%), % of remaining after 30 min, Human. Type of series: in vitro ADME.

T1 sequence (O95342 whole entry): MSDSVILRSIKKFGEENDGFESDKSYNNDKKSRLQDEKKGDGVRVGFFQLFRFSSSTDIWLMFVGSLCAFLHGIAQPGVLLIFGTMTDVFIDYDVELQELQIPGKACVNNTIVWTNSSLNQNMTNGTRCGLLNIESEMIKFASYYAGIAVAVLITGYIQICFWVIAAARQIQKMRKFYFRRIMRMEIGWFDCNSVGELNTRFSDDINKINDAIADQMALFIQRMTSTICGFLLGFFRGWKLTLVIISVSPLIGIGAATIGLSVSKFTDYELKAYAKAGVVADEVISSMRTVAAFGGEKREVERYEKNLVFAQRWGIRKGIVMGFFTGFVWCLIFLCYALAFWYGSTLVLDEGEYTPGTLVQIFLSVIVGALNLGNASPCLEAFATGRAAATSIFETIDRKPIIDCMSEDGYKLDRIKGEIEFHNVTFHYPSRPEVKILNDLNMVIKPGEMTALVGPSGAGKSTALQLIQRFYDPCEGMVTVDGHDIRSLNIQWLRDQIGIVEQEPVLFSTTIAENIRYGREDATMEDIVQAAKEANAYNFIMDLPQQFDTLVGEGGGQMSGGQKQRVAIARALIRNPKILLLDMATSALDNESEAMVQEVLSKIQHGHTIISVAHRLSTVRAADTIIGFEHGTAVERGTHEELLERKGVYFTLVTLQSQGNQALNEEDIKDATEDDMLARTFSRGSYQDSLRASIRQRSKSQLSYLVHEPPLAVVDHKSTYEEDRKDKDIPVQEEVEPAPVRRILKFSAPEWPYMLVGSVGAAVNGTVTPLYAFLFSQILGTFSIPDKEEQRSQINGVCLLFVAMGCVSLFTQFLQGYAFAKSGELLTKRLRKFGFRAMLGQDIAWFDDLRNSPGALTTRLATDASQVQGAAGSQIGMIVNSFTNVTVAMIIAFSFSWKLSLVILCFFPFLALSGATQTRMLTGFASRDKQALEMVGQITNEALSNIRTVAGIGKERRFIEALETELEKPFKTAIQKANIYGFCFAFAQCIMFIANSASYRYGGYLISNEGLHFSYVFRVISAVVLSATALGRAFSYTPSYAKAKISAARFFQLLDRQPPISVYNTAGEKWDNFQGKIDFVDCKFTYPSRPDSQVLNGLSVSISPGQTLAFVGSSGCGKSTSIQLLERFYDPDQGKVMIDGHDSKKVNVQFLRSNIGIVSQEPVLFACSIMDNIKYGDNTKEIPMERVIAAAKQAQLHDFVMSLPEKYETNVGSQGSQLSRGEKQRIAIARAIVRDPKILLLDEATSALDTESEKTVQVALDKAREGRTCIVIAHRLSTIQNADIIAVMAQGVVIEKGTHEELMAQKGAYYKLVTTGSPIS
T2 sequence (Q92633 whole entry): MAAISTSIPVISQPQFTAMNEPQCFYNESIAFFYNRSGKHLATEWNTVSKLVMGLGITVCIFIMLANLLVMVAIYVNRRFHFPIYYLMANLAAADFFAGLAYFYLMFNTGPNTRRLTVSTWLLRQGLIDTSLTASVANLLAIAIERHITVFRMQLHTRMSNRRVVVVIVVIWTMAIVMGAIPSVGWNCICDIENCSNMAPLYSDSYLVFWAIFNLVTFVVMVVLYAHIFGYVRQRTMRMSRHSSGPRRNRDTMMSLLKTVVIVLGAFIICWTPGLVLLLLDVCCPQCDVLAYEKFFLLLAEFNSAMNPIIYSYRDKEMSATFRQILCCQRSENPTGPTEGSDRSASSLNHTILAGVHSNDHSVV

In the case of `Cc1nc(C2(C(=O)O)CC2)ccc1N1CCC(c2onc(C)c2NC(=O)O[C@H](C)c2ccccc2)CC1` [Compound 62], the amount remaining at 0.5 h in series [1] and in series [2] was above 75% in each case. Moreover, the inhibition at 0.25 h, 10 µM on BSEP lay within 25 to 50%. Also, the results for the IC50 with A2058 cells and on hLPAR1 were 0.1 to 0.5 µM and 0.01 to 0.2 µM, respectively.

On to `Cc1noc([C@@H]2CCN(c3ccc(C4(C(=O)O)CC4)cc3)[C@H](C)C2)c1NC(=O)O[C@H](C)c1ccccc1` (single isomer, unassigned) [Compound 21], for which the share remaining at 0.5 h in series [1] and in series [2] was above 75% in each case. The results for the IC50 in the series on A2058 cells and on hLPAR1 were below 0.1 µM and 0.01 to 0.2 µM, respectively.

Turning to `Cn1nnc(C2CCN(c3ccc(C4(C(=O)O)CC4)cc3)CC2)c1Nc1cccc(-c2ccccc2)n1` [Compound 6], the amount remaining at 0.5 h in series [1] and in series [2] was above 75% throughout. For the same compound, the IC50 is 0.5 to 5 µM in the series with A2058 cells and 0.01 to 0.2 µM at hLPAR1.

Take `Cc1noc(C2CCN(c3ccc(C4(C(=O)O)CC4)cc3)CC2)c1CNC(=O)O[C@@H](C)c1ccccc1` [Compound 25]: the share remaining at 0.5 h in series [1] and in series [2] was above 75% in each case. Also, the IC50 in the series with A2058 cells is at least 5 µM; at hLPAR1, 0.01 to 0.2 µM.

For the compound `CCCN(C)C(=O)OCc1c(C)noc1C1CCN(c2ccc(C3(C(=O)NS(=O)(=O)C(F)(F)F)CC3)cc2)CC1` [Compound 13], the values for the share remaining at 0.5 h in series [1] and in series [2] were 50 to 75% and at most 25%, respectively. For the same compound, the IC50 in the series on A2058 cells was at least 5 µM; at hLPAR1, at least 3 µM.

For `Cc1noc(C2CCN(c3ccc(C4(C(=O)NS(=O)(=O)C(C)(C)C(=O)O)CC4)cc3)CC2)c1NC(=O)O[C@H](C)c1ccccc1` [Compound 67, 2-methyl-2-[[1-[4-[4-[3-methyl-4-[[(1R)-1-phenylethoxy]carbonylamino]isoxazol-5-yl]-1-piperidyl]phenyl]cyclopropanecarbonyl]sulfamoyl]propanoic acid], the amount remaining at 0.5 h in series [1] and in series [2] was above 75% each time. Besides, at BSEP, the inhibition at 0.25 h, 10 µM fell in the range of 25 to 50%. Besides, the IC50 with A2058 cells is below 0.1 µM; on hLPAR1, below 0.01 µM.

For `Cc1ccccc1[C@@H](C)OC(=O)Nc1c(C)noc1C1CCN(c2ccc(C3(C(=O)NS(N)(=O)=O)CC3)cc2)CC1` [Compound 35], the share remaining at 0.5 h lay within 50 to 75% in series [1] and 25 to 50% in series [2]. Moreover, the values for the IC50 in the series with A2058 cells and on hLPAR1 were below 0.1 µM and below 0.01 µM, respectively.

With `Cc1noc(C2CCN(c3ccc(C4(C(=O)O)CC4)cc3)CC2)c1N[C@H](C)CCc1ccccc1` [Compound 22], the fraction remaining at 0.5 h in series [1] and in series [2] was 50 to 75% throughout. Further, the IC50 is 0.1 to 0.5 µM in the series with A2058 cells and 0.01 to 0.2 µM at hLPAR1.

For the compound `CNS(=O)(=O)NC(=O)C1(c2ccc(N3CCC(c4onc(C)c4NC(=O)O[C@H](C)c4ccccc4)CC3)cc2)CC1` [Compound 86], the fraction remaining at 0.5 h in series [1] and in series [2] was above 75% throughout. Besides, at BSEP, the inhibition at 0.25 h, 10 µM was 50 to 75%. Further, the IC50 in the series on A2058 cells was 0.1 to 0.5 µM; on hLPAR1 it was below 0.01 µM.

Regarding `Cc1noc(C2CCN(c3ccc(C4(C(=O)NS(=O)(=O)CCC(=O)O)CC4)cc3)CC2)c1NC(=O)O[C@H](C)c1ccccc1` [Compound 83], the fraction remaining at 0.5 h in series [1] and in series [2] was above 75% throughout. Also, the inhibition at 0.25 h, 10 µM at BSEP was at most 25%. Further, the IC50 is below 0.1 µM in the series on A2058 cells and below 0.01 µM on hLPAR1.

With `Cc1noc(C2CCN(c3ccc(C4(C(=O)NS(=O)(=O)C(C)C(=O)O)CC4)cc3)CC2)c1NC(=O)O[C@H](C)c1ccccc1` (stereo partly drawn) [Compound 71], the inhibition at 0.25 h, 10 µM on BSEP fell in the range of 25 to 50%. Moreover, the figures for the IC50 with A2058 cells and on hLPAR1 were below 0.1 µM and below 0.01 µM, respectively.

For the compound `CCc1ccccc1[C@@H](C)OC(=O)Nc1c(C)noc1C1CCN(c2ccc(C3(C(=O)NS(=O)(=O)CCC(=O)O)CC3)cc2)CC1` [Compound 37, 3-({[1-(4-{4-[4-({[(1R)-1-(2-ethylphenyl)ethoxy]carbonyl}amino)-3-methyl-1,2-oxazol-5-yl]piperidin-1-yl}phenyl)cyclopropyl]formamido}sulfonyl)propanoic acid], the inhibition at 0.25 h, 10 µM at BSEP fell in the range of 50 to 75%. Besides, the figures for the IC50 with A2058 cells and at hLPAR1 were below 0.1 µM and below 0.01 µM, respectively.

Turning to `C[C@@H](OC(=O)Nc1c(C2CCN(c3ccc(C4(C(=O)O)CC4)cc3)CC2)nnn1C)c1ccccc1` [Compound 60, (R)-1-(4-(4-(1-methyl-5-(((1-phenylethoxy)carbonyl)amino)-1H-1,2,3-triazol-4-yl)piperidin-1-yl)phenyl)cyclopropane-1-carboxylic acid], the inhibition at 0.25 h, 10 µM on BSEP is at most 25%. For the same compound, the IC50 lay in the range of 0.1 to 0.5 µM with A2058 cells and 0.01 to 0.2 µM at hLPAR1.

For `Cc1nsc(C2CCN(c3ccc(C4(C(=O)O)CC4)cc3)CC2)c1NC(=O)O[C@H](C)c1ccccc1` [Compound 95], the inhibition at 0.25 h, 10 µM on BSEP was in the range of 25 to 50%. Also, the IC50 was in the range of 0.1 to 0.5 µM with A2058 cells and 0.01 to 0.2 µM at hLPAR1.

As to `Cc1cc(C2(C(=O)O)CC2)ccc1N1CCC(c2onc(C)c2NC(=O)O[C@H](C)c2ccccc2)CC1` [Compound 61], the inhibition at 0.25 h, 10 µM on BSEP fell in the range of 50 to 75%. In addition, the IC50 with A2058 cells is below 0.1 µM; at hLPAR1, below 0.01 µM.

For `CNC(=O)C1(c2ccc(N3CCC(c4onc(C)c4NC(=O)O[C@H](C)c4ccccc4)CC3)cc2)CC1` [Compound 65], the inhibition at 0.25 h, 10 µM at BSEP was 50 to 75%. For the same compound, the IC50 with A2058 cells lay in the range of 0.1 to 0.5 µM; on hLPAR1 it was 0.01 to 0.2 µM.

As for `Cc1noc(C2CCN(c3ccc(C4(C(=O)NS(=O)(=O)C(C)(C)CO)CC4)cc3)CC2)c1NC(=O)O[C@H](C)c1ccccc1` [Compound 70], the share remaining at 0.5 h in series [1] and in series [2] was above 75% throughout. Further, the values for the IC50 in the series with A2058 cells and on hLPAR1 were below 0.1 µM and below 0.01 µM, respectively.

With `COc1cc(C2(C(=O)O)CC2)ccc1N1CCC(c2onc(C)c2NC(=O)O[C@H](C)c2ccccc2)CC1` [Compound 63, (R)-1-(3-methoxy-4-(4-(3-methyl-4-(((1-phenylethoxy)carbonyl)amino)isoxazol-5-yl)piperidin-1-yl)phenyl)cyclopropane-1-carboxylic acid], the inhibition at 0.25 h, 10 µM on BSEP was at most 25%. The IC50 was below 0.1 µM in the series with A2058 cells and below 0.01 µM on hLPAR1.

By share remaining is commonly meant what is left of the initial amount, in per cent. What is called inhibition is how much of the control response was suppressed. What is called IC50 is the midpoint of a concentration-inhibition curve.
